The target of assay [1] is T1, Lysine-specific demethylase 4D (Homo sapiens) (UniProt Q6B0I6).
T1 sequence (whole entry): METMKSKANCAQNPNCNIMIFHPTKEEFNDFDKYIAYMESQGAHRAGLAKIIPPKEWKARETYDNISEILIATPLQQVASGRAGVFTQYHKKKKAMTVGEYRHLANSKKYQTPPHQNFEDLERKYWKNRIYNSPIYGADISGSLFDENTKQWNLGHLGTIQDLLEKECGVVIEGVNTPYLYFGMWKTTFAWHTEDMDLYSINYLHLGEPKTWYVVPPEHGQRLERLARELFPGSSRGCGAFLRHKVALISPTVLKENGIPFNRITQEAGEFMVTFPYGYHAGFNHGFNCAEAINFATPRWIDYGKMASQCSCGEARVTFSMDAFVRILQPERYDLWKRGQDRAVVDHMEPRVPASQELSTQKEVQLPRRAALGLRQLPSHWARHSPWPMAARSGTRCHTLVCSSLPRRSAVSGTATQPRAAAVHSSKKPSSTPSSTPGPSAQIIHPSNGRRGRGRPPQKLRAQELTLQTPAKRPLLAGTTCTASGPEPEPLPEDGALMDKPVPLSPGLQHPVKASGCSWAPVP
Put plainly: Inhibition of KDM4D (unknown origin) at 10 uM using biotinylated H3 derived peptide as substrate preincubated for 15 mins followed by substrate addition measured after 1 hr by AlphaLISA method.

The target in assay [2] is T2, Lysine-specific demethylase 2B (Homo sapiens) (UniProt Q8NHM5).
T2 sequence (whole entry): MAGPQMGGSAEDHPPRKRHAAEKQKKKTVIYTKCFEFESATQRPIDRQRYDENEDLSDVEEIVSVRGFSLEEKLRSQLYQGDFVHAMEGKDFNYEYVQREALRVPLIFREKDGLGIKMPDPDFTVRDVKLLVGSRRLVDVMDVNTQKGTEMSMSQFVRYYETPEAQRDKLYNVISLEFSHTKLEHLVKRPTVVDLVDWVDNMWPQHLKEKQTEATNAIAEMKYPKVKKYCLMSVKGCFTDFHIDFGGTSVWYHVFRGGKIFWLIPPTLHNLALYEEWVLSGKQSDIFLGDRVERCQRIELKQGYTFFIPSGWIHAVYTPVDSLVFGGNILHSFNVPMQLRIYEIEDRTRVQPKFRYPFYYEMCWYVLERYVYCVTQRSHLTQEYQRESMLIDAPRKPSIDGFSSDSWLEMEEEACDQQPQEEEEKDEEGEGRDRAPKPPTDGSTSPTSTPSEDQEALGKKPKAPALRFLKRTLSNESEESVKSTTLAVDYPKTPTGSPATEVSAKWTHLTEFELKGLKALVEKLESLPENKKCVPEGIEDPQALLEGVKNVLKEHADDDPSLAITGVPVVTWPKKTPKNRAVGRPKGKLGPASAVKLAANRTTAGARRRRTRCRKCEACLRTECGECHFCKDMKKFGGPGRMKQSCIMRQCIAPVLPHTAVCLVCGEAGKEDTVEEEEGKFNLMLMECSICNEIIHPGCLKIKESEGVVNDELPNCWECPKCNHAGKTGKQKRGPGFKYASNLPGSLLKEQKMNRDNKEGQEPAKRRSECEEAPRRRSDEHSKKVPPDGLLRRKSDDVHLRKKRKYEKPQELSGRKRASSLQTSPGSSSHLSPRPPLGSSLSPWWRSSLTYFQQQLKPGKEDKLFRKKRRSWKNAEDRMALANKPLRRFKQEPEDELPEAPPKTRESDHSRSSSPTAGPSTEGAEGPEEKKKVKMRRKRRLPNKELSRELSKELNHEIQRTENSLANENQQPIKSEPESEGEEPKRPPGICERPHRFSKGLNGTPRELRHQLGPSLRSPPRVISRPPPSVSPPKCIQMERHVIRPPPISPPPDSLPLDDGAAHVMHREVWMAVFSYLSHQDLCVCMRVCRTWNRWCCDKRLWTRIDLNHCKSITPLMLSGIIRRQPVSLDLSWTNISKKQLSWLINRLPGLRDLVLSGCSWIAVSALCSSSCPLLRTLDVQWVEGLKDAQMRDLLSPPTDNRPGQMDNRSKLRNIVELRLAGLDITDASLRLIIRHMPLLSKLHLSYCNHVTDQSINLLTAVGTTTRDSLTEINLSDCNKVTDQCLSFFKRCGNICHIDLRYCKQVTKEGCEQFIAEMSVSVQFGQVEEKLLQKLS
Put plainly: Inhibition of KDM2B (unknown origin) at 10 uM.

In assay [3] the target is T3, Lysine-specific demethylase 4D (Homo sapiens, UniProt Q6B0I6).
T3 sequence (Q6B0I6 whole entry): T1 sequence (whole entry)
Description: Inhibition of KDM4D (unknown origin) using biotinylated H3 derived peptide as substrate preincubated for 15 mins followed by substrate addition measured after 1 hr by AlphaLISA method.

For assay [4], the target named is Lysine-specific demethylase 3B (Homo sapiens) (UniProt Q7LBC6). Put plainly: Inhibition of KDM3B (unknown origin) at 10 uM.
Assay [5] concerns the target Lysine-specific demethylase 5A (Homo sapiens) (UniProt P29375). Put plainly: Inhibition of KDM5A (unknown origin) at 10 uM.

The structures appear in SMILES notation.

Chain of Lysine-specific demethylase 3B (Homo sapiens) (Q7LBC6 whole entry): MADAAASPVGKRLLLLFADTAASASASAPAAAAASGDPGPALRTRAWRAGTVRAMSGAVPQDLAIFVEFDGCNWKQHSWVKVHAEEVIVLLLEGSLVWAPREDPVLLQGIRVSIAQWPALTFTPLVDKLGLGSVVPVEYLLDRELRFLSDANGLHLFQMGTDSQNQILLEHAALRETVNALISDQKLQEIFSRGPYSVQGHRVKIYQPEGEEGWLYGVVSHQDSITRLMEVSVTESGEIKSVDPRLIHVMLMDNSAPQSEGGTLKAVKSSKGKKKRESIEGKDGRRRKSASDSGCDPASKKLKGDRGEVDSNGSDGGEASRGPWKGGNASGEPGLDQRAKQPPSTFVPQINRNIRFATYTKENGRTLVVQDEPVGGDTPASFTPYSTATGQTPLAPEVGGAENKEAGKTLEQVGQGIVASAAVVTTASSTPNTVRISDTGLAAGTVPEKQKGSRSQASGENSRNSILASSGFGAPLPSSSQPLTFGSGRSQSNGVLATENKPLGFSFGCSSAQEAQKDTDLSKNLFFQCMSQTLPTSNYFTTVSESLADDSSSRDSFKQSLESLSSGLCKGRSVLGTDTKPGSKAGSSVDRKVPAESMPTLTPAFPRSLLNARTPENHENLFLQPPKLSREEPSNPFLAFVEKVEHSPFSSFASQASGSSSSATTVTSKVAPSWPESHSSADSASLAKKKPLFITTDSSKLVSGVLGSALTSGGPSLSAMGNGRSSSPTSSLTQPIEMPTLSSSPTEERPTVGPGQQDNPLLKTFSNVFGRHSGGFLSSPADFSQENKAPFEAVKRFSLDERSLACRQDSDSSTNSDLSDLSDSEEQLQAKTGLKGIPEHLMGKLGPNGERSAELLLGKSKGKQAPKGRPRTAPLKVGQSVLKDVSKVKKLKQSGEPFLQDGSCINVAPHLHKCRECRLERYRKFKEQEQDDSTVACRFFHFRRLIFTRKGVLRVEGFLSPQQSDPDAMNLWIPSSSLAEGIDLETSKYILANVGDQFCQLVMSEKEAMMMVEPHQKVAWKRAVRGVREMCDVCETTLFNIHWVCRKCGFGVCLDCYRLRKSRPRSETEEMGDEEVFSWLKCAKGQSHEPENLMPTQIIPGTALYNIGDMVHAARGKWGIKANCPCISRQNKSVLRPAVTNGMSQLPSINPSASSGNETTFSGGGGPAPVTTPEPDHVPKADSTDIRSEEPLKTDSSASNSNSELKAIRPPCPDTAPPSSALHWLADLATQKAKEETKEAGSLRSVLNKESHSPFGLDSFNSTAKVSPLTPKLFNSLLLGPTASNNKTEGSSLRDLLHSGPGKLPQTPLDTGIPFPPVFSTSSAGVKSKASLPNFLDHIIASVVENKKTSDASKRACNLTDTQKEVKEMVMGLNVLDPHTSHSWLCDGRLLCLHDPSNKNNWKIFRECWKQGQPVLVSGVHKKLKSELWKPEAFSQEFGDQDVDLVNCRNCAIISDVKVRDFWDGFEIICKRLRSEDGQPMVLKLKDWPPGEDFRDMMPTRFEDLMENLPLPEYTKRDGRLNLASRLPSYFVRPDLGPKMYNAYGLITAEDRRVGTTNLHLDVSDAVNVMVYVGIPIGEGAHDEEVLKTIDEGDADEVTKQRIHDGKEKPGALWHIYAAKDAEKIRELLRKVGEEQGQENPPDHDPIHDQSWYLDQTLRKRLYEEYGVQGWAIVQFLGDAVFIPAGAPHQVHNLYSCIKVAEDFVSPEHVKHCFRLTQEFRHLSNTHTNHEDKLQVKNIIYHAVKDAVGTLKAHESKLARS
Chain of Lysine-specific demethylase 5A (Homo sapiens) (P29375 whole entry): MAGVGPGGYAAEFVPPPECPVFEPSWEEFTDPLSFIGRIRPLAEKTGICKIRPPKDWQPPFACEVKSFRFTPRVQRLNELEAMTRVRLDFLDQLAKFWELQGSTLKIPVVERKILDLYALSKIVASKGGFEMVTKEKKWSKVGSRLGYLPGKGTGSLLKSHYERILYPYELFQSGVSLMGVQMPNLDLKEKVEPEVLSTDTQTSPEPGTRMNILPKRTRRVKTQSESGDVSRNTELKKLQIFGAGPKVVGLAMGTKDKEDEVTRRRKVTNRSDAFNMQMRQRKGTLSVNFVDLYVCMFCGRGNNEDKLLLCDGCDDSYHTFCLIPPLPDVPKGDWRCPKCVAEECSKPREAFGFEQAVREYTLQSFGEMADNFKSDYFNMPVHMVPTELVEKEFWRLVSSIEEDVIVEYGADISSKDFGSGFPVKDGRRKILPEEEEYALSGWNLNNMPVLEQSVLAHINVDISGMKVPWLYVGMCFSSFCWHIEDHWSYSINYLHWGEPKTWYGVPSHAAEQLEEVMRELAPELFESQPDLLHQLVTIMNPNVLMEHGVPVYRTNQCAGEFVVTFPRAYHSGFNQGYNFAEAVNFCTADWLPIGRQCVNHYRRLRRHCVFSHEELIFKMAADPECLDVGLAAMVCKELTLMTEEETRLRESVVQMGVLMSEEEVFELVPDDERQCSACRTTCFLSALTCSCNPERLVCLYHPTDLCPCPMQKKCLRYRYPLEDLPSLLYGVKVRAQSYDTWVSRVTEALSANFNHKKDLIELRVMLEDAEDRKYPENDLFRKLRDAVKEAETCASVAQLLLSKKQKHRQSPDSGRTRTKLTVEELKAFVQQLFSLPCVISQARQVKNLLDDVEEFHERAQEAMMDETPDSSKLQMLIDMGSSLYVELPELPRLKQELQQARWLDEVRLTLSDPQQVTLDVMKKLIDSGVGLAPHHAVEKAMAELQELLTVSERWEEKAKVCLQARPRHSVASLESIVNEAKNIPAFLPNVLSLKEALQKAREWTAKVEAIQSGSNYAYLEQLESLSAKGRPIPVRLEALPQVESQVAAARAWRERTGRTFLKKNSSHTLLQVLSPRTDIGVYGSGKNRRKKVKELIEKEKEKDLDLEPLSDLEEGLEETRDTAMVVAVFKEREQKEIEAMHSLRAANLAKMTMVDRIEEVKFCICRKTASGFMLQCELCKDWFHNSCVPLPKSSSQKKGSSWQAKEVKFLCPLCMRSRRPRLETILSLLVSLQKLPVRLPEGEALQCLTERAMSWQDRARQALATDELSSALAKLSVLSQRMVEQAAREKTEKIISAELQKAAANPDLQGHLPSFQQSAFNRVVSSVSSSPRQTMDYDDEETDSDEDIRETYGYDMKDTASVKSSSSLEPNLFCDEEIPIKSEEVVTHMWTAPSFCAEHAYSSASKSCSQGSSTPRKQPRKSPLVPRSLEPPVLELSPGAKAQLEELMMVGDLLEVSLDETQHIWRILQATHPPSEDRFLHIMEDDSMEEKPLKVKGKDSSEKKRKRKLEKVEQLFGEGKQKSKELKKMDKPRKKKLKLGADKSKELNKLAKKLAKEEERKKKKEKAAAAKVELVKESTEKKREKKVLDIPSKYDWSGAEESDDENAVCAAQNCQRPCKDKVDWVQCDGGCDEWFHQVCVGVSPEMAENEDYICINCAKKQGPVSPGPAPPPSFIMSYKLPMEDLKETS

On to `N#Cc1cnn2c1nc(O)c1cccc(C(F)(F)F)c12`, for which, in assay [1], the inhibition worked out at 8.63%. With `N#Cc1cnn2c1nc(O)c1ncccc12`, the inhibition in assay [1] amounted to 5.26%. As to `N#Cc1cnn2c1nc(O)c1cccc([N+](=O)[O-])c12`, the inhibition is -4.85% in assay [2], 73.3% in assay [1], -2.18% in assay [4] and 23.1% in assay [5]. In addition, the IC50 in assay [3] was found to be 3140 nM. For the molecule `N#Cc1cnn2c1nc(O)c1ccc(C(F)(F)F)nc12`, the inhibition in assay [1] was found to be 10.4%. The same measure, in the same setting: next, `N#Cc1cnn2c1nc(O)c1ccncc12`: 68.1%; `N#Cc1cnn2c1nc(O)c1cc([N+](=O)[O-])cnc12`: 1.91%.

For the molecule `CS(=O)(=O)c1ccc2c(O)nc3c(C#N)cnn3c2c1`, the inhibition in assay [1] worked out at 9.63%.

For the molecule `N#Cc1cnn2c1nc(O)c1ccccc12`, the inhibition in assay [1] turned out to be 9.03%. On to `N#Cc1cnn2c1nc(O)c1ccc(C(F)(F)F)cc12`, for which the inhibition in assay [1] is -0.35%.

As to `Cc1ccc2c(O)nc3c(C#N)cnn3c2n1`, the inhibition in assay [1] was 21.9%. As to `CCc1nn2c(nc(O)c3cccnc32)c1C#N`, in assay [3], the IC50 was 1850 nM. In assay [1], the inhibition is 78.1%. `N#Cc1cnn2c1nc(O)c1cnccc12`: in assay [1], the inhibition is 16.4%. `N#Cc1cnn2c1nc(O)c1ccc(Cl)nc12`: the inhibition in assay [1] was found to be 58.7%. On the same count and under the same terms, the value for `N#Cc1cnn2c1nc(O)c1cccc(N)c12` was 62.3%.

In the case of `Oc1ccccc1-c1ccn(-c2nccc(N3CCOCC3)n2)n1`, the inhibition in assay [2] amounted to 84.1%; in assay [1], 99.7%; in assay [4] it was 90.7%; in assay [5] it was 73.6%. For `N#Cc1cnn2c1nc(O)c1ccc([N+](=O)[O-])cc12`, the inhibition in assay [1] was 4.75%. Still for that read-out and setting: the value for `Cc1nc2c(C#N)cnn2c2ncccc12` was 22.9%. The same measure, in the same setting: the value for `N#Cc1cnn2c1nc(O)c1cccnc12` was 20.1%.

In assay [3], `N#Cc1cnn2c1ncc1cccnc12` yielded an IC50 of 4030 nM. Also, in assay [1], the inhibition was determined as 85.1%. Regarding `Cc1nn2c(nc(O)c3cccnc32)c1C#N`, the midpoint of inhibition in assay [3], the IC50, lay at 410 nM. Besides, the inhibition in assay [1] came to 88.8%. As for `N#Cc1c(-c2ccccc2)nn2c1nc(O)c1cccnc12`, in assay [1], the inhibition is 23.6%. Still for that read-out and setting: the value for `N#Cc1cnn2c1nc(O)c1ccc(N)cc12` was -2.25%.

For the origin of these results see ChEMBL document CHEMBL4020786, “Discovery of pyrazolo[1,5-a]pyrimidine-3-carbonitrile derivatives as a new class of histone lysine demethylase 4D (KDM4D) inhibitors” (Bioorg Med Chem Lett, 2017).
